From patent US20250381118A1, “SKIN TREATMENT METHODS” (Amazentis SA, priority 2017, published 2025)

Legend:
[1] = tested on: MelanoDerm™ tissues (MEL-300-B); assay: MelanoDerm quantification of melanin content; format: cell-based, human; settings: 14 days; for Melanin content versus Kojic acid at 2%: 100 μM, Student t test
Description: (§1) The MelanoDerm™ cultures from MatTek Corporation (Ashland, Massachusetts, USA) are a pigmented 3D-Living Skin Equivalent model. MEL-300 tissues are obtained by seeding keratinocytes with melanocytes. MEL-300-B cultures contain melanocytes derived from a donor tissue and are used for the evaluation of skin lightening potential. MEL-300-B were prepared in a long life maintenance medium (EPI-100-LLMM available from the MatTek Corporation) and cultured for a total of 14 days. A total of four tissue replicates (n=4) was used per group.
(§2) Untreated tissue was used as negative control. Maintenance medium was refreshed every 2 days.
(§3) Urolithin A was applied to the samples by addition to the maintenance medium at a final concentration of 50 and 100 µM, prepared from a stock solution at 50 mM in DMSO. A vehicle control was prepared using DMSO at 0.2% in maintenance medium. Maintenance medium added in Urolithin A or DMSO was refreshed every 2 days. Kojic acid was used as a positive control at 2% in 50:50 butylene glycol: water and applied topically (i.e. on the stratum corneum, the outermost layer of the epidermis, of the MelanoDerm™ sample). Kojic acid is a well-known inhibitor of tyrosinase, a key enzyme that is responsible for melanogenesis in melanoma and melanocytes, and is used to treat hyperpigmentation, melasma, and wrinkle in cosmetics products. Every 2 days, tissues were rinsed with sterile PBS to remove Kojic acid prior to adding a fresh preparation of kojic acid at 2% in 50:50 butylene glycol: water. Maintenance medium was changed at the same time. • a. At day 14, all tissues were photographed by top view for macroscopic analysis of pigmentation using a Nikon Eclipse Ti microscope. […] It is also visible that tissues treated with Urolithin A at 50 and 100 μM are as light as the tissues treated with the positive control Kojic acid applied topically at 2%. • b. The lightness of the samples was assessed by measuring the L value using the Konica Minolta Color Spectrophotometer (CM-700d) at day 0, 4, 7, 11 and 14. The L value tells how light or dark the color is, with black corresponding to L=0 and white to L=100. FIG. 3 represents the L values measured in the difference samples. […] At the end of the treatment, the L-values of tissues treated with Urolithin A and Kojic acid are equivalent, confirming what is visible in FIG. 2. […] Three tissues per group were used for the quantification of melanin. Tissues were first incubated in PBS to remove any phenol red remaining from the maintenance medium. Tissues were placed in a 1.7 ml microfuge tube with 500 μl of Solvable™ (Tissue and Gel Solubilizer 0.5 M-Packard BioScience Co. Catalogue No. 6NE9100) and incubated at 95° C. overnight along with melanin standards. Melanin standards were prepared by dissolving melanin (Sigma catalog number M8631) in Solvable™ at 1 mg/ml to make stock solution.
Following overnight incubation, samples were centrifuged at 13000 rpm for 5 minutes to pellet any insoluble material. 200 μl of each sample were transferred to a 96-well plate and read at 490 nm. FIG. 4 represents the results for the melanin content expressed in μg. Statistical significance was performed using a one-way ANOVA, followed by a Dunnett post-hoc test for multiple comparison of each group against the negative control.

[2] = Particle size distribution after micronisation (Malvern Mastersizer 2000); format: physicochemical; settings: micronized, spiral jet mill
Source text: Urolithin A was micronized using an MC50 Spiral 20 Jetmill (Valortecs SAS, Blodelsheim, France), using filtered nitrogen, with a feed rate of 240 g/hr, a Venturi pressure of 12 bar, and a mill pressure of 12 bar. Urolithin A was micronized to give urolithin A having a particle size distribution of D90=9 μm to 15 μm and D50=2 to 9 μm. The actual particle size distribution was D90=11.5 μm, D50=3.9 μm, D10=0.7 μm, measured using a Malvern Mastersizer 2000.

[3] = tested on: MelanoDerm™ tissues (MEL-300-B); assay: MelanoDerm lightness, L value by color spectrophotometer; format: cell-based, human; settings: for L value versus negative control group: from day 4 until day 14
Description: as §1, §2, §3

rodents = settings: cited from earlier work
[4] = tested on: EpiDerm™ tissues (EPI-200, normal human-derived epidermal keratinocytes); assay: EpiDerm skin cell viability (MTT) assay; format: cell-based; settings: 96 hours; for Relative cell viability (% of negative control): basolateral, 90% = irritant threshold
Description: Pre-screen treatment conditions: A good skin lightener should inhibit melanin synthesis but not cause cytotoxicity to the tissue. The impact of Urolithin A on skin cells viability was performed with the EpiDerm tissue (EPI-200). The reconstructed human epidermal model EpiDerm™ (EPI-200, MatTek, Ashland, USA) consists of normal human-derived epidermal keratinocytes, which have been cultured to form a multilayered highly differentiated model of the human epidermis.
Tissues were grown in maintenance medium (EPI-100-LLMM available from the MatTek Corporation). Treatment was done basolaterally, i.e. with the test compounds dissolved in the maintenance medium, for a total duration of 96 hours. Two EpiDerm™ tissues (n=2) were used per condition, which were 1) water, 2) DMSO 0.5%, 3) Urolithin A 25 μM, 4) Urolithin A 50 μM and 5) Urolithin A 100 μM. Maintenance medium added or not in Urolithin A or DMSO was refreshed at 48 hours.
Cell viability is measured by dehydrogenase conversion of MTT [(3-4,5-dimethylthiazole-2-yl) 2,5-diphenyltetrazoliumbromide], present in cell mitochondria, into a blue formazan salt that is quantitatively measured after extraction from tissues. The MTT assay was performed by transferring the tissues to 24-well plates containing MTT medium (1 mg/ml). After a 3 hr MTT incubation, the blue formazan salt formed by cellular mitochondria was extracted with 2.0 ml/tissue of isopropanol (extractant solution, part #MTT-100-EXT) and the optical density of the extracted formazan was determined using a spectrophotometer at 570 nm. Relative cell viability was calculated for each tissue as % of the mean of the negative control tissues.

[5] = Solubility (water; topical cream); format: physicochemical; settings: topical cream including lipophilic excipients, e.g. an oil and/or a medium chain triglyceride
[6] = tested on: MelanoDerm™ tissues (MEL-300-B); assay: MelanoDerm macroscopic analysis of pigmentation (top view); format: cell-based, human; settings: day 14
Description: as §1, §2
as §3, with “Melanin standards were prepared by dissolving melanin (Sigma catalog number M8631) in Solvable™ at 1 mg/ml to make stock solution.” left out

O=c1cc(CO)occ1O [Kojic acid, reference compound]
Decrease of melanin content compared to the negative control ([1]; 2% in 50:50 butylene glycol:water, applied topically): 62%

O=c1oc2cc(O)ccc2c2ccc(O)cc12 [Urolithin A]
Particle size D10 [2]: 0.7 μm
Particle size D50 [2]: 3.9 μm
Particle size D90 [2]: 11.5 μm
Speed of tissue-lightening effect versus Kojic acid ([3]; 50 μM): faster tissue-lightening effects
L value versus negative control group ([3]; 50 μM): significantly higher
Speed of tissue-/skin-lightening effect versus Kojic acid ([3]; 100 μM): faster tissue-lightening effects
L value versus negative control group ([3]; 100 μM): significantly higher
Speed of tissue-/skin-lightening effect versus Kojic acid ([3]; 100 μM, listed as urolithin A): faster skin-lightening effects
L value versus tissues treated with Kojic acid ([3]; Urolithin A 50 or 100 μM, day 4 and 7): higher L value
L value versus tissues treated with Kojic acid ([3]; end of the treatment (day 14)): equivalent
Decrease of melanin content compared to the negative control ([1]; 50 μM in maintenance medium): 65%
Decrease of melanin content compared to the negative control ([1]; 100 μM in maintenance medium): 67%
Melanin content versus Kojic acid at 2% [1]: significantly lower
Melanin content versus Kojic acid at 2% ([1]; listed as urolithin A): greater decrease in melanin content
Mitophagy (rodents; in vivo): induces mitophagy
Lifespan (rodents; rodents): increases lifespan
Relative cell viability (% of negative control) ([4]; Urolithin A 25 μM): higher than 90%
Relative cell viability (% of negative control) ([4]; Urolithin A 50 μM): higher than 90%
Relative cell viability (% of negative control) ([4]; Urolithin A 100 μM): higher than 90%
Effect on skin cell viability / cytotoxicity ([4]; at the tested concentrations (25, 50, 100 μM)): does not impair skin cell viability
Solubility in topical cream composition [5]: especially soluble
Macroscopic pigmentation versus negative control and DMSO 0.2% group ([6]; 50 μM in maintenance medium): consistently lighter
Macroscopic pigmentation versus positive control Kojic acid 2% topical ([6]; 50 μM in maintenance medium): as light as
Macroscopic pigmentation versus negative control and DMSO 0.2% group ([6]; 100 μM in maintenance medium): consistently lighter
Macroscopic pigmentation versus positive control Kojic acid 2% topical ([6]; 100 μM in maintenance medium): as light as
